Several values for one entry are separate records, joined by “and”; a condition that tells them apart may be missing. Identical values can stand only once.

Brain concentration and Plasma concentration data for two compounds are collected here from patent publication US12558326B2, “Method for treating epilepsy” (Xenon Pharmaceuticals Inc., priority 2018, dated 2026).

A short description of the series: Brain and plasma distribution after the 6 Hz assay (UHPLC-ESI-MS/MS). It counts as in vivo, mouse. Conditions: 20 mg/kg IP, total concentration, sampled immediately after 6 Hz assay (one hour post dose). As for the experimental part: Pharmacological distribution and bioanalysis. Immediately following characterization of seizure behaviors in the 6 Hz assay, animals were humanely sacrificed and brain and plasma samples were collected for analysis of the distribution of the administered compounds to these tissue compartments.
Brain sample homogenization. Pre-weighed whole mouse brains were thawed and 1 mL of deionized water and 1 mL of acetonitrile were added to each sample vial containing brain tissue. The samples were homogenized using a hand-held Omni™ TH homogenizer (Omni International, Kennesaw, GA, USA) until a uniform slurry was obtained. 1 mL aliquots of the slurry were transferred to clean 1.5 mL plastic Eppendorf tubes and the tubes were centrifuged at 13,000 rpm (15,871×g) for 20 minutes. The supernatant was collected and stored in clean labelled plastic Eppendorf vials at −80° C.
Mouse plasma and brain homogenate sample preparation. Mouse brain homogenates and mouse plasma samples, as well as calibration standards and QC samples prepared from control (“blank”) untreated mouse plasma, were extracted by protein precipitation. Briefly, 50 μL of each brain homogenate and mouse plasma sample (as well as each calibration standard, QC sample and blank mouse plasma sample) was mixed with 50 μL of internal standard solution [a 2,500 ng/mL solution of (S)-5-((1-benzylpyrrolidin-3-yl)(methyl)amino)-6-methyl-N-(thiazol-4-yl)pyridine-2-sulfonamide in deionized water/acetonitrile (1:1 v/v)], followed by addition of 50 μL of 6% (v/v) phosphoric acid in water. This was followed by the addition of 200 μL of acetonitrile. The samples were vortexed for 30 seconds and then centrifuged for 20 min at 13,000 rpm (15,871×g). The supernatants were further diluted four-fold with acetonitrile:water (1:1 v/v) and transferred to a 96-well plate prior to analysis. Calibration and QC samples were prepared in blank K2EDTA mouse plasma in the concentration range from 2.3 ng/mL to 4800 ng/mL with QC samples, including low QC (14 ng/mL), mid QC (225 ng/mL), and high QC (3600 ng/mL).
UHPLC-ESI-MS/MS analysis. Samples were then analyzed by ultra-high pressure liquid chromatography/electrospray ionization tandem mass spectroscopy (UHPLC-ESI MS/MS) using a Sciex™ TQ-5500 (AB Sciex™ LP, Concord, ON, Canada) mass spectrometer equipped with a Shimadzu Nexera™ UHPLC pump, column compartment and auto-sampler (Shimadzu Scientific Instruments, Inc., Columbia, MD, USA), using a binary gradient elution starting with 80% water (A)/20% acetonitrile (B), both solvents containing 0.1% formic acid. After 0.6 minutes, mobile phase B was increased linearly to 100% to 1 minute and elution was maintained at 100% mobile phase B until 1.5 minutes, and then allowed to re-equilibrate at the initial ration of 80% mobile phase A and 20% mobile phase B for a total run time of 2.5 minutes at a flow rate of 0.4 mL/min. The column used was ACE Excel™ 2 C18-PFP (2.1 mm i.d.×[…], 2 μm particle size)(Advanced Chromatography Technologies Ltd, Aberdeen, Scotland). The analytes and the internal standard were ionized by electrospray in the positive ion mode and detected by multiple reaction monitoring (MRM) using the transitions listed in Table 1.

With `CCNC(C)Cc1cccc(C(F)(F)F)c1` (racemic) [(rac)-fenfluramine, (R/S)—N-ethyl-1-(3-(trifluoromethyl)phenyl)propan-2-amine], the Brain concentration was 146.5 μM and 33870 ng/g; the Plasma concentration is 10.74 μM and 2484 ng/g.

As for `CCN[C@H](C)Cc1cccc(C(F)(F)F)c1` [(R)-fenfluramine, (R)—N-ethyl-1-(3-(trifluoromethyl)phenyl)propan-2-amine], the Brain concentration is 193.7 μM and 44797 ng/g; the Plasma concentration is 15.02 μM and 3474 ng/g.
